Assay results from US7674463B1, “Method of inhibiting angiogenesis by administration of a corticotropin releasing factor receptor 2 agonist” (Research Development Foundation, priority 1999, dated 2010).
“Also recorded” adds a separate entry of the source. No end group written: not given here.

Legend:
[1] = tested on: CRFR2 null mutant mice; experiment: cardiovascular response to intravenous infusion, CRFR2 null mutant mice; assay type: in vivo; conditions: for arterial pressure response to urocortin: intravenous infusion
Excerpt: (§1) The cardiovascular responses to intravenous infusion of urocortin and sodium nitroprusside, a vasodilator, were examined in mice (wild type: n 5; mutant: n=3) anesthetized with isofluorine. The arterial catheter for blood pressure recording was fabricated from a sterile PE-10 tubing softened and pulled to an outer diameter of ˜0.4 mm. The femoral artery was exposed, and the arterial catheter filled with heparin saline (500 U/ml) was implanted and secured with surgical threads and tissue glue (Vetbond). […] A second catheter was then implanted in the external jugular vein for intravenous infusion of drugs. Drug infusion was performed […] following completion of the cannulation procedure. The venous catheter was connected to a drug-filled syringe. Infusion was completed within 0.5-1.0 min. Both wild type and mutants received an identical dose of urocortin (0.1 μg in 200 μl of 0.9% saline) and saline (as a control).
(§2) The doses used were determined from preliminary experiments with reference to data obtained from corresponding studies in Sprague Dawley rats (2). In order to verify that the lack of cardiovascular response to the urocortin injection in mutants was not attributed to the loss of ability of the mice to vasodilate, the mutant mice also received a second infusion of sodium nitroprusside (0.8 μg in 100 μl of 0.9% saline) following recovery of arterial pressure from the urocortin infusion. The mean arterial pressure (MAP) was determined from the blood pressure tracings.

[2] = tested on: CRFR2; conditions: urocortin versus CRF; cited from earlier work
[3] = tested on: wild type mice; experiment: cardiovascular response to intravenous infusion, wild type mice; assay type: in vivo
Excerpt: as §1, §2

[4] = tested on: mice; experiment: hair growth over gel foam sponge implanted under shaved skin; assay type: in vivo; conditions: after five days
Excerpt: Small regions area of mice were shaved over of their skin and gel foam sponges impregnated with bFGF and urocortin, various growth factors, and CRF antagonist astressin were surgically implanted under the shaved skin. […] Therefore, urocortin and bFGF stimulate rapid hair growth.

urocortin (DNPSLSIDLTFHLLRTLLELARTQSQRERAEQNRIIFDSV; ends and bridges not checked; UniProt P55089 83-122, looked up) [a CRF-related peptide, thought to be the endogenous ligand for CRFR2]
arterial pressure response to urocortin [1]: no measurable responses; also recorded: no response | arterial pressure response to urocortin ([1]; listed as UCN): remarkable muted response | reduction in arterial pressure, only 1 mutant mouse, transient ([1]; urocortin 0.1 μg intravenous, likely attributable to injection pressure): −3.5 mmHg | affinity for CRFR2 relative to CRF [2]: ~40 fold | depressor response (change in arterial pressure) ([3]; control mice, anesthetized, urocortin 0.1 μg intravenous infusion): −28.3±2.0 mm Hg | persistence of the reduction in arterial pressure (recording period) ([3]; control mice, urocortin 0.1 μg intravenous infusion): 90 to 120 min | mean arteriole pressure response to intravenous urocortin ([3]; wild type animals): dramatic decrease

astressin
hair growth in shaved area above implanted sponge [4]: Little hair growth
